The text below walks through data of publication PMC11945201, “Enhancing the Oral Bioavailability of Glutathione Using Innovative Analogue Approaches” (Pharmaceutics, 2025).

The subject of one data set is Fibroblast cells. Kind of data set: UV rescue of UVA-irradiated fibroblast cells (MTT). Format: cell-based. The note with it: for cell viability versus untreated groups (in words): UV rescue; for % Cell Viability (with UV): UVA 1 h, then peptide 0.0325 mmolL^−1, 24 h. The protocol:
(§1) Fibroblast cells were seeded into 96-well plates at a density of 10,000 cells per well determined by cell counting. Cells were allowed to settle and attach for 24 h before the addition of peptides. The supernatant in each well was discarded, and the attached cells were washed using serum-free DMEM twice. One group of cells was exposed to UVA under a UV lamp for 1 h. A second group of cells was not exposed to UV irradiation. The supernatant was removed from each well of both groups and replaced with peptide (100 μL, 0.0325 mmolL^−1), which was then dissolved in Fluorobite^TM DMEM. Each plate, including 2 wells of both groups was also incubated with serum-free DMEM (positive control) and 2% Triton-X (negative control) for 24 h. The supernatant in each well of both groups was then discarded and the cells washed using PBS. MTT (100 μL, 6 mmolL^−1) that was dissolved in HBSS was then added to each well and incubated for 2 h for MTT conversion into formazan. The supernatant was then discarded, and the cells were washed using PBS to remove any residual MTT and formazan that were not attached to the cellular mitochondria. Formazan was dissolved in DMSO (50 μL), and the absorbance was measured on a microplate reader at a wavelength of 570 nm.

Data set [1] concerns γ-glutamyl transferase (GGT). Format: in vitro ADME, equine. Particulars: for % Degradation by GGT: horse, 100 μgmL^−1, pH 9. The protocol:
Each compound and GSH (100 μgmL^−1, 0.0315 molL^−1) was added to each reaction vessel containing phosphate buffer solution (800 μL, pH 9.0). The reaction vessels were incubated at 37 °C with shaking for the entire duration of the experiment. Reaction was initiated by the addition of GGT enzyme solution (100 μL, 10 UmL^−1). […] The degradation rate of the novel compounds analysed by HPLC were compared with that of GSH. […] A GGT degradation less than 50% was considered resistance to GTT activity.

The subject of data set [2] is glutathione S-transferase (GST). Kind of data set: Glutathione S-transferase assay (CDNB conjugation, absorbance 340 nm). Format: biochemical, equine. The note with it: for GST Activity > 50%: yes/no, compared to GSH, more than 50% considered retaining GST activity; for activity/efficacy with GST enzyme (in words): qualitative analysis. The protocol:
The degree of conjugation of GSH or novel compounds to a substrate catalysed by GST can be monitored […] by conjugation with the substrate 1-chloro-2,4-dinotrobenzene (CDNB) to a thiol group. Successful conjugation results in the formation of a S-DNB conjugate, which strongly absorbs at 340 nm.
A stock solution of GSH and novel compounds (0.0315 mmolL^−1) were prepared. GSH or novel compounds (26 µL) were added to a mixture of pH = 7.4 DPBS (170 µL), CDNB (2 µL, 100 mmolL^−1), and GST enzyme (2 µL, 25 UmL^−1) to initiate the reaction. The rate of increase in absorbance at 340 nm was monitored every minute over a 10 min period. The rate of increase in absorbance at 340 nm was calculated by the following equation (Equation (1)), where ΔA340 is the change in absorption at 340 nm per minute:(1) ΔA340=A340(final)–A340(initial)/t.
The rate of increase in absorption at 340 nm was correlated to the specific activity of GST using the following equation (Equation (2)):(2) ΔA340×V/εmM ×Venz=Specific activity of GST, where the extinction coefficient εmM for a 96-well plate of a path length of 0.5 cm is 5.3 mmolL^−1cm^−1; Venz is the volume of the GST enzyme sample used (2 µL); and V is the total volume used ([…]). […] A GST activity more than 50% was considered as retaining GST activity.

The subject of data set [3] is Caco-2, Fibroblast, and HT29-MTX-E12 cells. Kind of data set: Cytotoxicity by MTT cell viability. Format: cell-based. Particulars: 24 h incubation, cell line not split in table (Caco-2, Fibroblast, HT29-MTX-E12), highest usable concentration 3.25 mmolL^−1. The procedure: All cell culture studies were conducted in aseptic conditions. Incubation was maintained at an atmosphere of 37.0 °C, 5% CO2, and 95% relative humidity. The caco-2 cells were grown in complete Dulbecco’s modified Eagle’s medium (DMEM), which was prepared by adding 10% foetal bovine serum (FBS), 1% penicillin-streptomycin (P-S), and 1% non-essential amino acids (NEAA) to sterile DMEM. Cells were cultured in T-25 and T-75 tissue culture flasks, and the medium was exchanged every 3 days until 90% confluence was reached. Cells were detached and subcultured with 0.25% Trypsin-EDTA. The suspended cell concentration was determined by cell counting.
Cytotoxicity was measured by measuring cell viability using MTT. Then, 90% confluent cells were detached by 0.25% trypsin-EDTA, which were then counted and seeded into sterile 96-well plates. Caco-2 cells were seeded into 96-well plates at a density of 100,000 cells per well and incubated for 24 h prior to the experiment. Fibroblast cells were seeded into 96-well plates at a density of 10,000 cells per well and incubated for 24 h prior to the experiment. HT-29 cells were seeded into 96-well plates at a density of 10,000 cells per well and incubated for 24 h prior to the experiment. The supernatant in each well were discarded and the attached cells were washed using serum-free Fluorobite^TM DMEM twice to remove any phenol red. The peptide, at concentrations of 10 mgmL^−1, 1 mgmL^−1, 0.1 mgmL^−1, 0.01 mgmL^−1, 0.001 mgmL^−1, and 0.0001 mgmL^−1 were dissolved in serum-free Fluorobite^TM DMEM. The total volume of sample in each well used was 100 μL. The cells were incubated with the peptide for 24 h. Cells were also incubated with serum-free DMEM (positive control) and 2% Triton-X (negative control) for 24 h. The supernatant in each well was then discarded and washed using serum-free Fluorobite^TM DMEM. MTT (100 μL, 1.2 mmolL^−1) dissolved in Fluorobite^TM DMEM was then added to each well and incubated for 2 h for MTT conversion into formazan. The supernatant was then discarded, and the cells were washed using Fluorobite^TM DMEM to remove any residual MTT and formazan that were not attached to cellular mitochondria. Formazan was dissolved in dimethyl sulfoxide (DMSO) (50 μL), and the absorbance was measured on a microplate reader at a wavelength of 570 nm. Cell viability was expressed as a percentage of the positive control and calculated as follows (where Aexp is the absorbance at 570 nm of the experimental group, Aneg is the absorbance at 570 nm of the negative control, and Acon is the cell viability of the positive control): Cell viability = (Aexp − Aneg)/(Acon − Aneg).

The test system of data set [4] is glutathione reductase (GR) and glutathione peroxidase (GPx). The data set is described as follows: Glutathione reductase and glutathione peroxidase coupled assay (NADPH, 340 nm). Particulars: for GT/GPx Activity > 50%: yes/no, more than 50% considered retaining GR and GPx activity; for activity with GPx and GR enzymes (in words): qualitative analysis. Format: biochemical, yeast (GR), bovine (GPx). The protocol: The activity of GR can be measured by monitoring the rate of decrease in absorbance of its substrate, NADPH, which absorbs light of 340 nm in the presence of a second substrate, i.e., oxidised GSH. […] In the presence of peroxides, reduced GSH can be oxidised by the enzyme GPx while reducing the peroxide. […] The NADPH solution (10 μL, 5 mmolL^−1), GPx enzyme solution (10 μL, 0.25 UmL^−1), and GR enzyme solution (10 μL, 10 UmL^−1) were also added to the reaction mixture. The reaction was initiated by the addition of tBu-OOH (2 μL, 30 mmolL^−1), and the decrease in absorbance at 340 nm was recorded by a microplate reader every 10 secs for one minute. […] A GR and GPx activity more than 50% was considered as retaining GR and GPx activity.

Data set [5] is described as follows: UV rescue of UVA-irradiated fibroblast cells (MTT). Format: cell-based. The note with it: peptide 0.0325 mmolL^−1, 24 h, no UV, mean ± SD, n = 6, read-out: % Cell Viability (no UV). The procedure: as §1

As a reminder, the IC50 is the concentration needed to halve the response being measured. The low end stands for greater potency, the high end for weaker potency. Broadly, the viability is a read-out of living cells in per cent, often relative to untreated cells.

As to `N[C@@H](CCC(=O)N[C@@H](CS)C(=O)NCC(=O)O)C(=O)O` [Compound 1.61], the “cell viability versus untreated groups (in words)” value in the data set with Fibroblast cells is on record as “significantly higher cell viability than the untreated groups”. For the same molecule, the “% Cell Viability (with UV)” value in the data set on Fibroblast cells (mean ± SD, n = 6) stood at 69.0 ± 0.6%. The “% Cell Viability (no UV)” value with Fibroblast cells (peptide 0.0325 mmolL^−1, 24 h, no UV, mean ± SD, n = 6) amounted to 74.3 ± 2.0%. Also, the “% Degradation by GGT” value in data set [1] is 100%. The “GST Activity > 50%” value in data set [2] is given as “✔ (✔: yes)”. In data set [3], this molecule gave an IC50 greater than 3.25 mM. The “GT/GPx Activity > 50%” value in data set [4] was “✔ (✔: yes)”.

On to `N[C@@H](CCC(=O)N[C@H](CS)C(=O)NCC(=O)O)C(=O)O` [Compound 1.62], for which, in the data set with Fibroblast cells, the “cell viability versus untreated groups (in words)” value is “significantly higher cell viability than the untreated groups”. Besides, the “% Cell Viability (with UV)” value in the data set with Fibroblast cells (mean ± SD, n = 6) came to 70.8 ± 5.7%. In data set [5], the viability at 24 h, 0.0325 mmolL^−1 came out at 112 ± 5.5%. In data set [1], the “GGT degradation compared to GSH (in words)” value is given as “less than half the rate of GGT degradation” and the “% Degradation by GGT” value was 82.3%. In data set [2], the “activity/efficacy with GST enzyme (in words)” value (shortened to “activity/efficacy”) is given as “lost detoxification efficacy” and the “GST Activity > 50%” value is “X (X: no)”. The molecule also gave a half-inhibitory concentration (IC50) in data set [3] (Homo sapiens) greater than 3.25 mM. For the same molecule, in data set [4], the “activity with GPx and GR enzymes (in words)” value is reported as “loss of activity”; the “GT/GPx Activity > 50%” value is reported as “X (X: no)”.

As to `N[C@H](CCC(=O)N[C@@H](CS)C(=O)NCC(=O)O)C(=O)O` [Compound 1.63], the “cell viability versus untreated groups (in words)” value in the data set with Fibroblast cells is reported as “significantly higher cell viability than the untreated groups”. The “% Cell Viability (with UV)” value in the data set on Fibroblast cells (mean ± SD, n = 6) worked out at 101.1 ± 5.2%. Moreover, in data set [5], the viability at 24 h, 0.0325 mmolL^−1 was 137 ± 16.1%. Also, in data set [1], the “GGT degradation compared to GSH (in words)” value is given as “less than half the rate of GGT degradation” and the “% Degradation by GGT” value is reported as 72.7%. In addition, in data set [2], the “activity/efficacy” value was “lost detoxification efficacy” and the “GST Activity > 50%” value was “X (X: no)”. In data set [3] (Homo sapiens), this molecule registered an IC50 greater than 3.25 mM. Besides, in data set [4], the “activity with GPx and GR enzymes (in words)” value is listed as “retained activity”; the “GT/GPx Activity > 50%” value is reported as “✔ (✔: yes)”.

As to `N[C@H](CCC(=O)N[C@H](CS)C(=O)NCC(=O)O)C(=O)O` [Compound 1.64], the “cell viability versus untreated groups (in words)” value with Fibroblast cells is given as “significantly higher cell viability than the untreated groups”. In addition, the “% Cell Viability (with UV)” value in the data set on Fibroblast cells (mean ± SD, n = 6) amounted to 98.5 ± 7.1%. Also, the viability at 24 h, 0.0325 mmolL^−1 in data set [5] was 128 ± 7.9%. In data set [1], the “GGT degradation compared to GSH (in words)” value was “less than half the rate of GGT degradation” and the “% Degradation by GGT” value is 60.2%. Moreover, in data set [2], the “activity/efficacy” value was “retained the detoxification effectiveness” and the “GST Activity > 50%” value is given as “✔ (✔: yes)”. The molecule further came in with an IC50 in data set [3] (Homo sapiens) greater than 3.25 mM. In data set [4], the “activity with GPx and GR enzymes (in words)” value is listed as “loss of activity”; the “GT/GPx Activity > 50%” value is listed as “X (X: no)”.

Turning to `CN(CC(=O)O)C(=O)[C@H](CS)NC(=O)CC[C@H](N)C(=O)O` [Compound 1.65], in the data set with Fibroblast cells, the “cell viability versus untreated groups (in words)” value is given as “significantly higher cell viability than the untreated groups”. The “% Cell Viability (with UV)” value with Fibroblast cells (mean ± SD, n = 6) was found to be 69.3 ± 26.6%. The viability at 24 h, 0.0325 mmolL^−1 in data set [5] was 58.8%. Further, in data set [1], the “GGT degradation compared to GSH (in words)” value is listed as “did not show a decrease in degradation” and the “% Degradation by GGT” value stood at 122.2%. Besides, in data set [2], the “activity/efficacy” value is given as “loss of activity” and the “GST Activity > 50%” value is “X (X: no)”. This molecule yielded an IC50 in data set [3] (Homo sapiens) of 0.984 mM. In addition, in data set [4], the “activity with GPx and GR enzymes (in words)” value is reported as “retention of activity”; the “GT/GPx Activity > 50%” value was “✔ (✔: yes)”.

Consider `CN[C@@H](CCC(=O)N[C@@H](CS)C(=O)NCC(=O)O)C(=O)O` [Compound 1.71], for which the “cell viability versus untreated groups (in words)” value in the data set on Fibroblast cells is given as “significantly higher cell viability than the untreated groups”. Further, the “% Cell Viability (with UV)” value in the data set with Fibroblast cells (mean ± SD, n = 6) was found to be 97.0 ± 5.5%. Besides, in data set [5], the viability at 24 h, 0.0325 mmolL^−1 amounted to 79.5 ± 10.2%. The “% Degradation by GGT” value in data set [1] worked out at 11.7%. In data set [2], the “activity/efficacy” value is recorded as “loss of activity” and the “GST Activity > 50%” value is on record as “X (X: no)”. In data set [4], the “activity with GPx and GR enzymes (in words)” value is listed as “retention of activity”; the “GT/GPx Activity > 50%” value is reported as “✔ (✔: yes)”.
